Legend:
KIT = KIT (Homo sapiens, UniProt P10721); assay: Kinase profiling (KINOMEscan / SelectScreen), KIT; format: biochemical; details: ATP equal to Km
Experimental: Effect of CT-179 on protein kinase activity was evaluated using the Thermofisher Scientific SelectScreen Kinase Profiling Service. Over 400 human protein kinases were tested in the presence of 1 μM final concentration of CT-179 at an ATP concentration equal to the known ATP Km for each kinase. The experiment was done by Curtana Pharmaceuticals. Data is presented as percentage of inhibition of enzyme activity. Software CORAL was used to make the kinome tree, which is available from: http://phanstiel-lab.med.unc.edu/CORAL/.

Med-813 MB cell line = assay: Cell viability, 7 days treatment, Med-813; format: cell-based; details: Homo sapiens, 168 h; Med-813, 7 days
Experimental: Cell proliferation was determined by a CellTiter 96® Non-Radioactive Cell Proliferation Assay (Promega) kit. Absorbance at 490 nm was measured on a Biotek PowerWave (Biotek, USA) plate scanner to obtain raw data. Average absorbance from triplicate wells were plotted against concentration using GraphPad Prism software v.7.0 (GraphPad software). At the indicated time points, cells were stained using FITC-conjugated Annexin V and Annexin V binding buffer (BD Pharmingen™) according to the manufacturer’s instructions. Annexin V or propidium iodide (PI)-positive cells were analyzed using a Fortessa 5 Flow Cytometer (Becton Dickinson) and data was analyzed using FlowJo® software (Tree Star).

OLIG2 dimerization = target: T1, OLIG2 dimerization (Homo sapiens, UniProt Q13516); assay: FCCS of OLIG2 dimerization in live HEK293 cells co-transfected with OLIG2-eGFP and OLIG2-Tomato; format: cell-based
T1 construct: expressed in transfected cells; host or cells: HEK293
T1 sequence (Q13516 1-323): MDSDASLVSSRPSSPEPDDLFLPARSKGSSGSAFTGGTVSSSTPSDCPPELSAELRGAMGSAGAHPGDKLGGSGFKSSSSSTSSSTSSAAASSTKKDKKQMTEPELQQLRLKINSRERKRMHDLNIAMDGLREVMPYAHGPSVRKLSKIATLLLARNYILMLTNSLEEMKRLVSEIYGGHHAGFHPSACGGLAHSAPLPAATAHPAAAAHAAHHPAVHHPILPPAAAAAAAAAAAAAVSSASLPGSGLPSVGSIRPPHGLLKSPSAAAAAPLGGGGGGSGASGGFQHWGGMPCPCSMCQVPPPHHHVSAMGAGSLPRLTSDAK
Experimental: HEK293 cells were maintained in a humidified atmosphere containing 5 % CO2 at 37 °C in Dulbecco’s Modified Eagle Medium supplemented with 10 % fetal bovine serum (FBS) and antibiotics (100 U/mL penicillin and 100 μg/mL streptomycin). One day before the transfection, HEK293 cells were split into Lab-Tek 8-well chambered Coverglass (Thermo Fisher Scientific). HEK293 cells on and 8-well chamber were transfected with plasmid DNA (OLIG2-eGFP and OLIG2-Tomato; or with eGFP and Tomato as negative control) using Lipofectamine 2000 (Thermo Fisher Scientific). After the transfection, HEK293 cells were cultured for 24 h at 37 °C. […]
CLSM imaging and FCCS measurements were performed using an LSM880 microscope system (Carl Zeiss, Germany) equipped with an Ar-ion laser with three lines: 458 nm, 488 nm and 514 nm, 543 nm He-Ne laser, and a water immersion objective lens (C-Apochromat, 40×, 1.2 N.A., Corr, Carl Zeiss), and a gallium arsenide phosphide (GaAsP) spectral array detector and photomultiplier tube (PMT) spectral array detector. eGFP and Tomato were excited using 488 nm laser and 543 nm laser, respectively. […] The emitted fluorescence was split by a diffraction grating and detected using a GaAsP detector (wavelength range 496–534 nm for eGFP) and a PMT detector (wavelength range 580–758 nm for Tomato). […]
Data acquired by FCCS was analyzed using the ZEN software (Carl Zeiss). […]

Chain of KIT (P10721 26-976): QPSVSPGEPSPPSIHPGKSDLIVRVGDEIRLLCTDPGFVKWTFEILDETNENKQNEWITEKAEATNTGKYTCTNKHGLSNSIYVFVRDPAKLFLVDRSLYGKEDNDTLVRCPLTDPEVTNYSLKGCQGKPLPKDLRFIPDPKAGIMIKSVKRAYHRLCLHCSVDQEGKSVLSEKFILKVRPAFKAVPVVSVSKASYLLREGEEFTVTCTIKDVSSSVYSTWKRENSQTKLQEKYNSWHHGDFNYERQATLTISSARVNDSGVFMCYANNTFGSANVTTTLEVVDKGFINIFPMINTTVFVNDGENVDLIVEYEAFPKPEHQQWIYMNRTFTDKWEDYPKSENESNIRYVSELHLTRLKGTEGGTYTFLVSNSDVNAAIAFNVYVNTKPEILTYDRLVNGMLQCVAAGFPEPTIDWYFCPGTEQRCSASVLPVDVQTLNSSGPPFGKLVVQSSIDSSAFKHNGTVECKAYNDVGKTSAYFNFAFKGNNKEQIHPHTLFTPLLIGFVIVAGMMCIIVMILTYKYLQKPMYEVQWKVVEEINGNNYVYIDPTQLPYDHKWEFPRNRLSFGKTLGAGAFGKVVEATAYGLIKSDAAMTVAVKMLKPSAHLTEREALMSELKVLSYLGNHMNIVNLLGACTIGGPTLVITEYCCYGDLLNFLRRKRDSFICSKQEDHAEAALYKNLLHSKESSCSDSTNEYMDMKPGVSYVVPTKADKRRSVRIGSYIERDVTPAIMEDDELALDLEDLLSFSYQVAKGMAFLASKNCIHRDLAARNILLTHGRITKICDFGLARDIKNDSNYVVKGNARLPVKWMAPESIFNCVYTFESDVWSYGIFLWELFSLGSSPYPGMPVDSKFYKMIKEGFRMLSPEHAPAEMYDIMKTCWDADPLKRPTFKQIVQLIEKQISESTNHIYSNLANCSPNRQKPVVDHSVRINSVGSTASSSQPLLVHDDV

## Cc1cc(NCCCN(C)C)nc(NC(=O)Nc2ccc(Cl)c(Cl)c2)n1 [CT-179]
KIT
  inhibition at 1 µM: 66%
Med-813 MB cell line
  IC50: 965 nM
OLIG2 dimerization; 1 μM for one hour
  relative cross-correlation amplitude (RCA): significantly decreased
OLIG2 dimerization; best fit of RCA dose-response curve
  allosteric factor, nallo: −0.66
